Assay results published in patent US6710083B2, “Method of treating palmar and plantar fibromatosis” (priority 2002, dated 2004).

Assays:
[1] = test system: palmar fibromatosis (Dupuytren's contracture); assay: Clinical treatment of patients with palmar fibromatosis (Dupuytren's contracture) with oral Accutane: initial dosage then maintenance dosage; assay type: in vivo, human
Description: (§1) Example 1 to 3 illustrate clinical effectiveness of the above described treatment method. An initial treatment and a maintenance treatment as described above were prescribed to the patients. It is noted that the patients described in the Examples were in the average weight range, therefore, an average dosage of 40 mg was used.
(§2) The patient was treated with orally administering Accutane® (Hoffmann-La Roche Inc., Nutley, New Jersey) about 40 mg daily for 14 days. Then the dosage was decreased to a maintenance dosage of 40 mg about twice a week for twelve months.
(§3) The patient was treated with orally administering Accutane® about 40 mg daily for 14 days. Then the dosage was decreased to 40 mg about twice a week for eight months.
(§4) The patient was placed on Accutane® 40 mg daily for two weeks.

[2] = Side effects, tolerability and laboratory values during the clinical treatment of palmar fibromatosis patients; assay type: in vivo, human
Description: as §1, §2, §3, §4

[3] = Example 2 patient, eight months of therapy

SMILES: CC1=C(/C=C/C(C)=C/C=C/C(C)=C\C(=O)O)C(C)(C)CCC1 [Accutane, 13-cis retinoic acid]
- dimple overhead of the third methocarpal bone ([1]; Example 1 patient, both hands, after twelve months of therapy): disappeared
- fibrotic band, right hand ([1]; Example 1 patient, middle finger, 4 mm before treatment, 40 mg daily 14 days, then 40 mg about twice a week, after twelve months): 2 mm
- fibrotic band, left hand ([1]; Example 1 patient, middle finger, oral 40 mg daily for 14 days, then 40 mg about twice a week, after twelve months): completely disappeared
- pain and tenderness in the flexor tendon area of the hands ([1]; Example 1 patient, patient-described, after twelve months of therapy): completely abated
- range of fixed flexion of the left middle finger ([1]; Example 1 patient, 7 degree before treatment as printed, after twelve months of therapy): none
- fixed flexion of the right middle finger ([1]; Example 1 patient, fixed 15 degree before treatment as printed, after twelve months of therapy): 3 degree
- fibrotic ridge of the left hand ([1]; Example 2 patient, advanced disease, 40 mg daily 14 days, then 40 mg about twice a week for eight months): reduced in scope and size
- ring finger's disposition from the flexed position ([1]; Example 2 patient, left hand, about 90 degree before treatment, eight months of therapy): about 70 degree
- tenderness of the left hand caused by the contracture ([1]; Example 2 patient, patient-reported, eight months of therapy): less tender
- tenderness in the flexor tendon area ([1]; Example 3 patient, patient-described, nine months of treatment): less tenderness
- thickness of the fibrotic band ([1]; Example 3 patient, right hand, 40 mg daily two weeks, then 40 mg about twice a week for nine months): reduced
- restriction of extension of the ring finger ([1]; Example 3 patient, right hand, nine months of treatment): lessened
- deflection of the right hand ring finger ([1]; Example 3 patient, 30 degree before treatment, nine months of treatment): 20 degree
- further progression of the contracture ([1]; patients with either early stage disease or advanced conditions (general statement)): inhibits further progression of the contracture
- adverse side effects ([2]; Example 1 patient, 40 mg daily 14 days, then 40 mg about twice a week for twelve months): No adverse side effects were noted other than drying of lips
- blood chemistries ([2]; Example 1 patient, low maintenance dosage): remained normal
- laboratory abnormality [2, 3]: No laboratory abnormality was observed
- musculoskeletal pain [2, 3]: some musculoskelatal pain, which diminished after the third month of the treatment
- tolerability ([2]; Example 2 patient, lower maintenance dosage): well tolerated
- serious adverse side effects ([2]; patients diagnosed with Dupytren's contracture, described treatment (general statement)): no serious adverse side effects were observed
